# Measured values reported in PMC4627284, “High-throughput simultaneous screen and counterscreen identifies homoharringtonine as synthetic lethal with von Hippel-Lindau loss in renal cell carcinoma” (Oncotarget, 2015).
# Key:
# [1] = system: VHL-deficient 786-O cells; assay: High-throughput simultaneous screen and counterscreen, 1:1 mix of EV^GFP and VHL^mCh 786-O cells, fluorescence imaging; type: cell-based, human; conditions: 2 nM; equally affected VHL-deficient and VHL-reconstituted cells
# Excerpt: To identify small molecule compounds synthetic lethal with VHL, we carried out an unbiased cell-based screen of a chemical library of ~12,800 compounds using 786-O cells, an extensively studied cell line derived from a VHL-deficient primary human ccRCC [26]. 786-O cells were stably transfected with either an empty vector (EV) control or reconstituted with an HA-tagged VHL cDNA. […] To distinguish between the two otherwise isogenic cell lines, we transduced the VHL-deficient 786-O cells with a histone H2B-GFP reporter and the VHL-reconstituted cells with an H2B-mCherry reporter. The histone proteins drive the fluorochrome to nuclei facilitating cell identification and segmentation algorithms (Figure 1A and 1B). […]
# Figure 1 Screening strategy to identify compounds that are synthetic lethal with VHL A. Schematic diagram of a ~12,800 chemical library synthetic lethal screen. […] Fluorescence imaging (using the BD Pathway 855 imager) was used to identify compounds preferentially depleting VHL-deficient/GFP-positive cells after cells were segmented. B. Left panel: Representative image of fluorescence signal from Hoescht-labeled 786-O cells. Right panel: overlay of GFP fluorescence signal (green; from 786-O EV^GFP cells) and mCherry fluorescence nuclear signal (red; VHL^mCh cells). […] Toxicity was determined as ≤100 VHL^mCh cells per field. […]
# [2] = system: VHL-mutant patient-derived ccRCC tumorgraft lines; assay: ccRCC tumorgraft model, six VHL-mutant tumorgraft lines; type: in vivo, NOD/SCID mice; conditions: 0.5 mg/kg IP once every 48 hours, positive control
# Description: We selected 6 independently-derived ccRCC tumorgraft lines that were confirmed to have VHL mutation. The mice (3-5 mice per tumorgraft line) were treated with either HHT (0.7 mg/kg), vehicle (as a negative control), or rapamycin (0.5 mg/kg; as a positive control). In total, 65 tumorgraft bearing mice were evaluated for these experiments in time courses lasting ~28 days, with tumor growth measured every 3 or 4 days.
# Figure 3 HHT inhibits tumor growth in a ccRCC tumorgraft model A-F, Tumorgraft lines were treated with vehicle control, HHT (0.7 mg/kg), rapamycin (0.5 mg/kg), (or the combination, where indicated) and tumor growth was measured on the indicated days. Day 0 represents the first day of treatment.
# Tumorgrafts were generated and propagated as described previously, with tumor samples implanted subcutaneously into the flank of the mouse for drug trials. Briefly, 4- to 8-week-old NOD/SCID mice were anesthetized with isoflurane and implanted subcutaneously with 64 mm^3 tumor fragments (cohorts 2-20). Once tumors reached an average of at least ~250 mm^3, drug treatment was begun. The mice were treated with vehicle, 0.7 mg/kg homoharringtonine (HHT) via gavage twice daily, or 0.5 mg/kg rapamycin given by IP injection once every 48 hours. Tumor size (volume) was measured twice weekly and was obtained by multiplying tumor length, width, and depth using calipers. To assess toxicity, mouse weight was monitored once weekly.
# Sections from tumors were stained with hematoxylin and eosin (H&E) as described previously.
compound,measurement,setting,value
"CO[C@H]1C[C@@H]2CC[C@@H](C)[C@@](O)(O2)C(=O)C(=O)N2CCCC[C@H]2C(=O)O[C@H]([C@H](C)C[C@@H]2CC[C@@H](O)[C@H](OC)C2)CC(=O)[C@H](C)/C=C(\C)[C@@H](O)[C@@H](OC)C(=O)[C@H](C)C[C@H](C)/C=C/C=C/C=C/1C [rapamycin, Rapamycin (sirolimus)]",effect on cell proliferation,[1],modestly reduced cell proliferation
same,response of tumorgraft lines,[2],Most lines responded
